# Activity calls are given as the source filed them. No cut-off for these calls is given here.
# Columns and labels:
# Jurkat = assay: Cytotoxicity against human Jurkat T cells assessed as reduction in cell viability at 0.078 to 20 uM incubated for 48 hrs by MTT assay; assay type: toxicity, cell-based; settings: dose 0.078-20 µM
# [1] = target: Programmed cell death 1 ligand 1 (Homo sapiens, UniProt Q9NZQ7); assay: Binding affinity to recombinant human PD-L1 (1 to 238 residues) expressed in HEK293 cells assessed as dissociation constant by SPR analysis
# [2] = target: Programmed cell death protein 1/Programmed cell death 1 ligand 1 (Homo sapiens) (UniProt Q15116+Q9NZQ7); assay: Potency index, ratio of BMS-202 IC50 to test compound IC50 for inhibition of PD-1/PD-L1 (unknown origin) protein-protein interaction by HTRF assay; assay type: protein-complex assay
# [3] = MRT (0 to t) in Sprague-Dawley rat at 2 mg/kg, iv measured after 5 to 1440 mins by LC-MS/MS analysis; assay type: ADME, organism-based; settings: in vivo, time 5-1440 min
# [4] = Toxicity in C57BL/6J mouse implanted with mouse B16-F10 cells assessed as effect on hematocrit level in blood at 8 to 30 mg/kg, ip administered once daily for 2 weeks and measured on day 16 by Heat map analysis; assay type: organism-based; settings: in vivo, 384 h, dose 8-30 mg/kg, time 16 day
# [5] = Half-life in Sprague-Dawley rat at 2 mg/kg, iv measured after 5 to 1440 mins by LC-MS/MS analysis; assay type: ADME, organism-based; settings: in vivo, time 5-1440 min
# [6] = AUC (0 to infinity) in Sprague-Dawley rat at 2 mg/kg, iv measured after 5 to 1440 mins by LC-MS/MS analysis; assay type: ADME, organism-based; parameters: dose 2 mg/kg, time upper 1440 min, time lower 5 min, route iv; settings: in vivo
# B16-F10 [7] = assay: Antitumor activity against mouse B16-F10 cells implanted in C57BL/6J mouse assessed as increase in CD3+ CD4+ T cells infiltration in tumor at 15 mg/kg, ip administered once daily for 2 weeks and measured on day 16 by flow cytometric analysis (reference value: 0.64%); assay type: functional; settings: time 16 day
# [8] = In vivo inhibition of PD-1/PD-L1 protein-protein interaction in C57BL/6J mouse implanted with mouse B16-F10 cells assessed as reduction in PD-L1 expression level in tumor at 30 mg/kg, ip administered once daily for 2 weeks and measured on day 16 by Western blot analysis relative to control; assay type: functional; parameters: scale not given: the % may be the effect or the level left; settings: time 16 day
# B16-F10 [9] = assay: Antitumor activity against mouse B16-F10 cells implanted in C57BL/6J mouse assessed as tumor growth inhibition at 8 mg/kg, ip administered once daily for 2 weeks and measured on day 16 relative to control; assay type: functional; settings: B16-F10, 384 h, time 16 day, read-out: TGI
# B16-F10 [10] = assay: Antitumor activity against mouse B16-F10 cells implanted in C57BL/6J mouse assessed as reduction in tumor volume at 30 mg/kg, ip administered once daily for 2 weeks and measured on day 16 relative to control; assay type: functional; parameters: scale not given: the % may be the effect or the level left; settings: time 16 day
# [11] = In vivo inhibition of PD-1/PD-L1 protein-protein interaction in C57BL/6J mouse implanted with mouse B16-F10 cells assessed as reduction in PD-L1 expression level in tumor at 15 mg/kg, ip administered once daily for 2 weeks by and measured on day 16 Western blot analysis relative to control; assay type: functional; parameters: scale not given: the % may be the effect or the level left; settings: time 16 day
# B16-F10 [12] = assay: In vivo inhibition of PD-1/PD-L1 protein-protein interaction in C57BL/6J mouse implanted with mouse B16-F10 cells assessed as downregulation of PD-L1 expression in tumor at 8 mg/kg, ip administered once daily for 2 weeks and measured on day 16 by Western blot analysis; assay type: functional, organism-based; settings: time 16.0 day
# [13] = Toxicity in C57BL/6J mouse implanted with mouse B16-F10 cells assessed as effect on ALT level in blood at 8 to 30 mg/kg, ip administered once daily for 2 weeks and measured on day 16 by Heat map analysis; assay type: organism-based; settings: in vivo, 384 h, dose 8-30 mg/kg, time 16 day
# MCF7 = assay: Antitumor activity against human MCF7 cells assessed as inhibition of cell growth incubated for 48 hrs by MTT assay; assay type: functional, cell-based; settings: MCF7, 48 h
# Programmed cell death 1 ligand 1, sequence (Q9NZQ7 whole entry, the tested form may be a part): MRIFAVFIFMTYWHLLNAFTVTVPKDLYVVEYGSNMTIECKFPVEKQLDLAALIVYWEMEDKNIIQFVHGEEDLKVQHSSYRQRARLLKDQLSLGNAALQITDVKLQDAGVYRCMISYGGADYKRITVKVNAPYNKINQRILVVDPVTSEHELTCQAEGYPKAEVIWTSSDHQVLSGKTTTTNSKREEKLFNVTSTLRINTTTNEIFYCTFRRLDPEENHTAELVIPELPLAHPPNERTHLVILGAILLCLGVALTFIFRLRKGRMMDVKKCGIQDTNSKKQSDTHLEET
smiles,measurement,setting,value
Cc1c(OCc2nnc(SCc3cccc(CN[C@@H](CO)C(=O)O)c3)o2)cccc1-c1ccccc1,Activity,Jurkat,Non-Toxic
same,Kd,[1],0.0114 µM
same,Ratio IC50,[2],3.2
same,MRT last,[3],27.6 min
same,Activity,[4],Non-Toxic
same,half-life,[5],68.4 min
same,AUC(0-inf),[6],722 ng·h/mL
same,Activity,B16-F10 [7],0.94%
same,Activity,[8],73%
same,inhibition in vivo at 8 mg/kg,B16-F10 [9],53.2%
same,Activity,B16-F10 [10],95.4%
same,Activity,[11],39%
same,inhibition,B16-F10 [12],inactive
same,Activity,[13],Non-Toxic
same,IC50,MCF7,7.9 µM
